Data: patent US7202244B2, “Chk-1 inhibitors” (Millennium Pharmaceuticals, Inc., priority 2002, dated 2007)

Tests used:
[1] = target: T1, GST-Chk1 (recombinant human Chk1) (Homo sapiens, UniProt O14757); experiment: Chk1 FlashPlate kinase assay; assay type: biochemical; conditions: 1 uM ATP
T1 construct: made in house; host or cells: insect cells (Bac-to-Bac baculovirus system)
T1 sequence (O14757 1-476): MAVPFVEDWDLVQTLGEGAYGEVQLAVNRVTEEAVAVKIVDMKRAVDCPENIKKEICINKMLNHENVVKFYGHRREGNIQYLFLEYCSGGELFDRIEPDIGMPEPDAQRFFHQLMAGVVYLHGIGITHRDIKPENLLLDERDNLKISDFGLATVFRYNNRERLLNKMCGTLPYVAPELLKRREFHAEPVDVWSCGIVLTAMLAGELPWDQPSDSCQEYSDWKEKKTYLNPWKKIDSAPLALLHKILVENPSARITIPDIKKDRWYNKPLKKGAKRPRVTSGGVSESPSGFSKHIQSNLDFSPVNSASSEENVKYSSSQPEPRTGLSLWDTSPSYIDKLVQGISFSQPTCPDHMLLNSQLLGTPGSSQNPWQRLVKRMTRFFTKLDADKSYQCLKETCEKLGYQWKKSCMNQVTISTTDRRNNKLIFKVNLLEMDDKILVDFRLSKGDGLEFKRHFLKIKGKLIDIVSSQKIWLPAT
Method: Recombinant human Chk1 was expressed as a fusion protein with glutathione S-transferase at the amino-terminus (GST-Chk1) using standard baculovirus vectors and (Bac-to-Bac®) insect cell expression system purchased from GIBCO™ Invitrogen. Recombinant protein expressed in insect cells was purified using glutathione sepharose (Amersham Biotech) using standard procedures described by the manufacturer.
Chk1 FlashPlate® Kinase Assay:
Reactions were incubated for 30 minutes at room temperature, terminated with 50 ul of 50 mM EDTA and 90 ul were transferred to streptavidin-coated FlashPlates® (NEN) and incubated for 1 hour at room temperature. Plates were washed with phosphate buffered salaine containing 0.01% Tween-20 and 10 mM sodium pyrophosphate. Plates were dried, sealed with Topseal™ (NEN) and amount of ^33P incorporated into the peptide substate measure using a Packard Topcount® NXT™ scintillation counter with standard settings.
Compounds of the present invention were tested in the Chk1 FlashPlate® kinase assay described above.

CHK-1 = target: T2, CHK-1 (Homo sapiens, UniProt O14757); experiment: IC50 for the test compound versus CHK-1 (Table 2, assay format not stated); assay type: biochemical
T2 sequence (O14757 1-476): T1 sequence (O14757 1-476)

[2] = system: HT29, HCT116 or other cells; experiment: WST assay: enhancement of cell killing by DNA damaging agents; assay type: cell-based; conditions: shift of 1 = no shift; for Shift 156 nM: Chk1 inhibitor fixed at 156 nM with DNA damaging agent titration; for Shift 313 nM: Chk1 inhibitor fixed at 313 nM with DNA damaging agent titration; for Shift 625 nM: Chk1 inhibitor fixed at 625 nM with DNA damaging agent titration; for Shift 1.25 μM: Chk1 inhibitor fixed at 1.25 μM with DNA damaging agent titration; for Shift 2.5 μM: Chk1 inhibitor fixed at 2.5 μM with DNA damaging agent titration; for Shift 78 nM: Chk1 inhibitor fixed at 78 nM with DNA damaging agent titration
Method: HT29, HCT116 (5000 cells/well) or other cells were seeded (75 ul) to 96 well clear bottom plates at densities which provide linear growth curves for 72 hours. Cells were cultured under sterile conditions in appropriate media and for HT29 & HCT116 this media was McCoy's 5A containing 10% Fetal Bovine Serum (FBS). Following the initial seeding of cells they are incubated at 37° C., 5% CO2 from 17 to 24 hours at which time the appropriate DNA damaging agents (camptothecins, 5-fluorouracil and etoposid) are added at increasing concentrations to a point which is capable of causing at least 80% cell killing with in 48 hours. Final volume of all DNA damaging agent & compound additions was 25 ul and assays contained <1% DMSO final. At the same time as DNA Damaging agent addition, Chk1 inhibitor was added at fixed concentrations to each DNA damaging agent titration to observe enhancement of cell killing. In addition, toxicity of each Chk1 inhibitor alone was observed. By doing this over a range of Chk1 inhibitor concentrations we were able to identify compounds which maximally enhance (2–30 fold) cell killing by each DNA damaging agent and generated ≦80% cell killing by the compound alone. Cell viability/cell killing under the conditions described above was determined by addition WST reagent (Roche) according to the manufacturer at 47 hours following DNA damage & Chk1 inhibitor addition and following a 3.5 hour or 2.5 hour incubation at 37 C, 5% CO2, OD450 was measured.

COc1cc(Cl)c(C)cc1NC(=O)Nc1cnccn1 [Compound 46]
IC50 [1]: < 1 µM

Cc1cnc(NC(=O)Nc2cc(Cl)ccc2OCC(C)(C)CN)cn1 [Compound 109]
IC50 [1]: < 0.1 µM

NCCCOc1ccc(Cl)cc1NC(=O)Nc1ccc(C(N)=O)cn1 [Compound 110]
IC50 [1]: < 0.1 µM

N#Cc1ccc(NC(=O)Nc2cc(Cl)ccc2OCCCN)nc1 [Compound 111]
IC50 [1]: < 0.1 µM

Cc1cnc(NC(=O)Nc2cc(Cl)ccc2OCCCNC2CCC2)cn1 [Compound 112]
IC50 [1]: < 0.1 µM

CN(C)CCCOc1ccc(Cl)cc1NC(=O)Nc1cnccn1 [Example 1, 1-[5-Chloro-2-(3-dimethylamino-propoxy)-phenyl]-3-pyrazin-2-yl-urea]
IC50 [1]: < 0.1 µM
IC50 (CHK-1): 0.0035 µM
Shift 156 nM [2]: 1
Shift 313 nM [2]: 1.2
Shift 625 nM [2]: 1.6
Shift 1.25 μM [2]: 2.2
Shift 2.5 μM [2]: 3.4

CN(C)CCOc1ccc(Cl)cc1NC(=O)Nc1cnccn1 [Example 2, 1-[5-Chloro-2-(2-dimethylamino-ethoxy)-phenyl]-3-pyrazin-2-yl-urea]
IC50 [1]: < 0.1 µM
IC50 (CHK-1): 0.008 µM
Shift 156 nM [2]: 1
Shift 313 nM [2]: 1.1
Shift 625 nM [2]: 1.5
Shift 1.25 μM [2]: 1.9
Shift 2.5 μM [2]: 2.6

Cc1cnc(NC(=O)Nc2cc(Cl)ccc2OCCN(C)C)cn1 [Example 3, 1-[5-Chloro-2-(2-dimethylamino-ethoxy)-phenyl]-3-(5-methyl-pyrazin-2-yl)-urea]
IC50 [1]: < 0.1 µM

O=C(Nc1cnccn1)Nc1cc(Cl)ccc1OCCN1CCOCC1 [Example 5, 1-[5-Chloro-2-(2-morpholin-4-yl-ethoxy)-phenyl]-3-pyrazin-2-yl-urea]
IC50 [1]: < 1 µM

COc1ccc(Cl)cc1NC(=O)Nc1cnccn1 [Example 6, 1-(5-Chloro-2-methoxy-phenyl)-3-pyrazin-2-yl-urea]
IC50 [1]: < 1 µM

CC(C)CCOc1ccc(Cl)cc1NC(=O)Nc1cnccn1 [Example 7, 1-[5-Chloro-2-(3-methyl-butoxy)-phenyl]-3-pyrazin-2-yl-urea]
IC50 [1]: < 1 µM

COc1ccc(C)cc1NC(=O)Nc1cnccn1 [Example 8, 1-(2-Methoxy-5-methyl-phenyl)-3-pyrazin-2-yl-urea]
IC50 [1]: < 1 µM

O=C(Nc1cnccn1)Nc1ccccc1OC(F)(F)F [Example 9, 1-Pyrazin-2-yl-3-(2-trifluoromethoxy-phenyl)-urea]
IC50 [1]: < 1 µM

Cc1ccc(Cl)cc1NC(=O)Nc1cnccn1 [Example 10, 1-(5-Chloro-2-methyl-phenyl)-3-pyrazin-2-yl-urea]
IC50 [1]: < 1 µM

COc1ccc(NC(C)=O)cc1NC(=O)Nc1cnccn1 [Example 11, N-[4-Methoxy-3-(3-pyrazin-2-yl-ureido)-phenyl]-acetamide]
IC50 [1]: < 1 µM

COC(=O)c1ccc(OC)c(NC(=O)Nc2cnccn2)c1 [Example 12, 4-Methoxy-3-(3-pyrazin-2-yl-ureido)-benzoic acid methyl ester]
IC50 [1]: < 1 µM

COc1ccc(C(F)(F)F)cc1NC(=O)Nc1cnccn1 [Example 13, 1-(2-Methoxy-5-trifluoromethyl-phenyl)-3-pyrazin-2-yl-urea]
IC50 [1]: < 1 µM

COc1ccc(NC(=O)Nc2cnccn2)c(OC)c1 [Example 14, 1-(2,4-Dimethoxy-phenyl)-3-pyrazin-2-yl-urea]
IC50 [1]: < 1 µM

COc1ccc(Cl)c(NC(=O)Nc2cnccn2)c1 [Example 15, 1-(2-Chloro-5-methoxy-phenyl)-3-pyrazin-2-yl-urea]
IC50 [1]: < 1 µM

COc1ccc(Cl)cc1NC(=O)Nc1ccncn1 [Example 16, 1-(5-Chloro-2-methoxy-phenyl)-3-pyrimidin-4-yl-urea]
IC50 [1]: < 20 µM

COc1ccccc1NC(=O)Nc1cnccn1 [Example 17, 1-(2-Methoxy-phenyl)-3-pyrazin-2-yl-urea]
IC50 [1]: < 20 µM

COc1ccc(NC(=O)Nc2cnccn2)cc1Cl [Example 18, 1-(3-Chloro-4-methoxy-phenyl)-3-pyrazin-2-yl-urea]
IC50 [1]: < 20 µM

O=C(Nc1cccc(Cl)c1)Nc1cnccn1 [Example 19, 1-(3-Chloro-phenyl)-3-pyrazin-2-yl-urea]
IC50 [1]: < 20 µM

O=C(Nc1ccc(N2CCCCC2)cc1)Nc1cnccn1 [Example 21, 1-(4-Piperidin-1-yl-phenyl)-3-pyrazin-2-yl-urea]
IC50 [1]: < 20 µM

O=C(Nc1cnccn1)Nc1cnccn1 [Example 23, 1,3-Di-pyrazin-2-yl-urea]
IC50 [1]: < 20 µM

O=C(Nc1ccc2c(c1)OCO2)Nc1cnccn1 [Example 24, 1-Benzo[1,3]dioxol-5-yl-3-pyrazin-2-yl-urea]
IC50 [1]: < 20 µM

O=C(Nc1cnccn1)Nc1cc(Cl)ccc1OCCN1CC1 [Example 26, 1-[2-(2-Aziridin-1-yl-ethoxy)-5-chloro-phenyl]-3-pyrazin-2-yl-urea]
IC50 [1]: < 1 µM

O=C(Nc1cnccn1)Nc1cc(Cl)ccc1OCc1cccnc1 [Example 27, 1-[5-Chloro-2-(pyridin-3-ylmethoxy)-phenyl]-3-pyrazin-2-yl-urea]
IC50 [1]: < 1 µM

Cc1cnc(NC(=O)Nc2cc(Cl)ccc2OCCCN)cn1 [Example 28]
IC50 (CHK-1): 0.004 µM
Shift 78 nM [2]: 2.7
Shift 156 nM [2]: 3.4
Shift 313 nM [2]: 5.3
Shift 625 nM [2]: 6.8
Shift 1.25 μM [2]: toxic
Shift 2.5 μM [2]: toxic

NCCCOc1ccc(Cl)cc1NC(=O)Nc1cnccn1 [Example 29, 1-[2-(3-Amino-propoxy)-5-chloro-phenyl]-3-pyrazin-2-yl-urea]
IC50 (CHK-1): 0.0025 µM
Shift 78 nM [2]: 2.5
Shift 156 nM [2]: 3.1
Shift 313 nM [2]: 4.5
Shift 625 nM [2]: 5.0
Shift 1.25 μM [2]: toxic
Shift 2.5 μM [2]: toxic

CN(C)CCCOc1ccc(Cl)cc1NC(=O)Nc1cnc2ccccc2n1 [Example 30, 1-[5-Chloro-2-(3-dimethylamino-propoxy)-phenyl]-3-quinoxalin-2-yl-urea]
IC50 (CHK-1): 0.019 µM
Shift 1.25 μM [2]: 1
Shift 2.5 μM [2]: 1.4

NCCCOc1ccc(Cl)cc1NC(=O)Nc1cnc2ccccc2n1 [Example 31, 1-[2-(3-Amino-propoxy)-5-chloro-phenyl]-3-quinoxalin-2-yl-urea]
IC50 (CHK-1): 0.005 µM
Shift 156 nM [2]: 1.3
Shift 313 nM [2]: 1.8
Shift 625 nM [2]: 2.8
Shift 1.25 μM [2]: 4.4
Shift 2.5 μM [2]: 6.2

NCCOc1ccc(Cl)cc1NC(=O)Nc1cnccn1 [Example 32, 1-[2-(2-Amino-ethoxy)-5-chloro-phenyl]-3-pyrazin-2-yl-urea]
IC50 (CHK-1): 0.016 µM
Shift 1.25 μM [2]: 1.2
Shift 2.5 μM [2]: 1.4

Cc1cnc(NC(=O)Nc2cc(Cl)ccc2OCCCCN)cn1 [Example 33, 1-[2-(4-Amino-butoxy)-5-chloro-phenyl]-3-(5-methyl-pyrazin-2-yl)-urea]
IC50 (CHK-1): 0.003 µM
Shift 78 nM [2]: 1.8
Shift 156 nM [2]: 2.4
Shift 313 nM [2]: 2.7
Shift 625 nM [2]: 3.1

COc1cncc(NC(=O)Nc2cc(Cl)ccc2OCCCN)n1 [Example 34]
IC50 (CHK-1): 0.02 µM
Shift 1.25 μM [2]: 2.4
Shift 2.5 μM [2]: 3.031

Cc1ccc(OCCCN(C)C)c(NC(=O)Nc2cnccn2)c1 [Example 35, 1-[5-Methyl-2-(3-dimethylamino-propoxy)-phenyl]-3-pyrazin-2-yl-urea]
IC50 (CHK-1): 0.016 µM
Shift 1.25 μM [2]: 2.1
Shift 2.5 μM [2]: 2.9
